We go through eleven compounds from US20230348376A1 (TEIJIN PHARMA LIMITED, priority 2020, published 2023).

The nature of series [1]: Evaluation of brain penetration in mice (blood and brain concentration at brain Cmax). To be noted: 1 mg/kg single oral dose, C57BL/6J mice. It is filed as in vivo, mouse. The method in brief: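 Male C57BL/6J mice (8 weeks, n=3) dosed orally once at 1 […] mg/kg; plasma and brain collected at 0.25, 0.5, 1, 2, 4 and 8 h. Compound extracted with acetonitrile from brain homogenate and plasma, quantified by LC/MS/MS.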

The test system of series [2] is rat oligodendrocyte progenitor cells. Briefly: Promotive activity of rat oligodendrocyte progenitor cell differentiation-1 (MBP gene expression, mRNA). The series is classed as cell-based. The following applies: Rattus norvegicus, Oligodendrocyte progenitor cell, 96 h, read-out: promotive activity at T3 base (MBP gene expression; DMSO 0%, T3 100%), 4 days, MBP/β actin mRNA. As to the method: Regarding vitamin D derivatives, which was confirmed to act on the vitamin D receptor (VDR) in Example 352, the promotive activity of oligodendrocyte progenitor cell (OPC) differentiation was evaluated by MBP gene expression (mRNA).
A forebrain obtained from SD rat (Charles River Japan, 1 day old) was crushed with 70 μm Cell Strainer (Falcon #352350), and a cell suspension was prepared by collecting the cells in oligodendrocyte progenitor cell separation medium (20% FBS/2 mM Glutamax (Gibco #35050-061)/i mM sodium pyruvate (Gibco #11360-070)/1% penicillin-streptomycin (Invitrogen #15140-122)/DMEM (Gibco #11960-044)). The cell suspension was seeded in a poly-D-lysine coated T75 flask (Thermo Fisher Scientific #132704) and cultured for about 2 weeks. After culturing, the flask was shaken using a rotary shaker ([…] #WB-101SRC) for about 1 hour (37° C., 100 rpm), and the supernatant was discarded to remove microglia. Subsequently, oligodendrocyte progenitor cell separation medium was added to the flask, and the mixture was similarly shaken for about 22 hours (37° C., 200 rpm), and the supernatant was collected to prepare oligodendrocyte progenitor cells.
The oligodendrocyte progenitor cell prepared was suspended in a differentiation medium (2% B27 (Thermo Fisher Scientific, Inc. #17504-044)/1% penicillin-streptomycin (Invitrogen Corporation #15140-122)/10 ng/mL CNTF (PeproTech Inc. #AF-450-13)/DMEM (Gibco #11960-044)), and seeded on a 96-well plate coated with poly-L-ornithine (FUJIFILM Wako Pure Chemical Corporation #163-27421) under the condition of 0.65×10^4 cells/well, and on a 384-well plate under the condition of 2×10^3 cells/well using an automatic dispensing system (LABCYTE #Echo555). […] After culturing, the cells seeded on the 96-well plate were subjected to immunostaining against MBP using following methods: fixation (4% paraformaldehyde solution, 30 minutes, room temperature), PBS washing, membrane permeation treatment (0.1% Trion X-100 (SIGMA #X100-100ML)/PBS, 3 minutes, room temperature), blocking (3% BSA (SIGMA #A9647-10G)/PBS, 1 hour, room temperature), primary antibody reaction (MBP antibody (abcam plc #ab40390), 2.5 μg/mL, 4° C., 24 hours), PBS washing, secondary antibody reaction (Alexa488 anti-rabbit IgG (Thermo Fisher Scientific, Inc. #A-11034), 5 μg/mL, room temperature, 1 hour), PBS washing, and nuclear staining (Hoechst33342 (DOJINDO #NU043), 10 μg/mL, room temperature, 5 minutes). Subsequently, images of each well were acquired using a fluorescence microscope (KEYENCE CORPORATION #BZ-X800), the number of MBP-positive cells and Hoechst 33342-positive cells were measured using an image analysis application (KEYENCE CORPORATION #BZ-X800 Analyzer), and then the ratio (the number of MBP-positive cells/the number of Hoechst33342-positive cells) was calculated. The cells seeded on the 384-well plate were subjected to real-time PCR using Cells-to-CT 1-Step TaqMan Kit (Thermo Fisher Scientific, Inc. #A25602) and QuantStudio 12K Flex Real-Time PCR System (Thermo Fisher Scientific, Inc. #4472380). The experiment was performed in accordance with the protocol attached to the kit. MBP (Thermo Fisher Scientific, Inc. #Assay ID Rn00690616_ml) and β actin (Thermo Fisher Scientific, Inc. #Assay ID Rn00667869_ml) were used as primers, and the expression levels of each were measured and the ratio (MBP/β actin) was calculated.

Another series deals with T1, human VDR (Homo sapiens, UniProt P11473).
T1 sequence (P11473 1-427): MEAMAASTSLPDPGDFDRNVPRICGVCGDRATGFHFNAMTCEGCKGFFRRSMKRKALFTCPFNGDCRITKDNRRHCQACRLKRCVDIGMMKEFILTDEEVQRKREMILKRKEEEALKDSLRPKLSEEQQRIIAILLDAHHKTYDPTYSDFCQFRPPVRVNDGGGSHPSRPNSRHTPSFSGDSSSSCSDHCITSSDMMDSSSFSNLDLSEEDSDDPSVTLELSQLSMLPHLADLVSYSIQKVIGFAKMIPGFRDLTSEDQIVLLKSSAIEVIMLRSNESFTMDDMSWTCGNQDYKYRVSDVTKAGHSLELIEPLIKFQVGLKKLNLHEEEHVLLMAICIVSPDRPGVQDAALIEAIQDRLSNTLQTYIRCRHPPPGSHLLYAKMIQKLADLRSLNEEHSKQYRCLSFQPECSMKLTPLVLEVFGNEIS
T1 sequence (P19793 1-462 partner): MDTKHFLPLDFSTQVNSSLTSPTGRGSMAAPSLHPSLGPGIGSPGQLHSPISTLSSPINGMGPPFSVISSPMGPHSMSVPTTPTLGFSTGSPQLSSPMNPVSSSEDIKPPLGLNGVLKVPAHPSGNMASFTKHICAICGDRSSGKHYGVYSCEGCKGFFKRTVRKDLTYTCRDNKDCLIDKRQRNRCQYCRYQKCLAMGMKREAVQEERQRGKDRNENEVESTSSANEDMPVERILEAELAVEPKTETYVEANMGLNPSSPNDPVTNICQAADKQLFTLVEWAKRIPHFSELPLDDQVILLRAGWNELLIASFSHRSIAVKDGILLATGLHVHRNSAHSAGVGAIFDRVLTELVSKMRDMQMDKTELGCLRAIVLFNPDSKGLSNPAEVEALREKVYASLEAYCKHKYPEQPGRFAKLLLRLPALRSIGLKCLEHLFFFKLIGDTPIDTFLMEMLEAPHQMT
The series is described as follows: Evaluation of VDR transcription activity in human osteoblasts (HOS cells), luciferase reporter. The following applies: Activity (EC50, VDR transcription activity), HOS cells transfected with human VDR, human RXRα and DR3 luciferase reporter; 21 hours.

As to `C=C1/C(=C\C=C2/CCC[C@]3(C)[C@@H]([C@H](C)CN4CC[C@H](C(F)F)C4)CC[C@@H]23)C[C@@H](O)[C@H](C)[C@@H]1O` [Compound B021, (1R,2S,3 S,Z)-5-(2-((1R,3aS,7aR,E)-1-((S)-1-((S)-3-(difluoromethyl)pyrrolidin-1-yl)propan-2-yl)-7a-methyloctahydro-4H-inden-4-ylidene)ethylidene)-2-methyl-4-methylenecyclohexane-1,3-diol], in series [1] (n=3), the “Concentration in blood (mean ± SD) at brain Cmax” value was determined as 0.32 ± 0.053 µM and the “Concentration in brain (mean ± SD) at brain Cmax” value came out at 237 ± 33 pmol/g. In addition, the Kp in series [1] (male, C57BL/6J, mouse, brain/plasma, po, 1 mg/kg, read-out: Concentration in brain/in blood ratio at brain Cmax) turned out to be 0.74. Besides, the activation at 1 µM in series [2] was not below 20%. The compound further yielded a concentration for a half-maximal effect (EC50) at human VDR of 0.01 to 0.1 µM.

For `C=C1[C@H](O)CC(=C/C=C2\CCC[C@]3(C)[C@@H]([C@H](C)CN4CCO[C@H](C(F)F)C4)CC[C@@H]23)C[C@H]1O` [Compound D007, (1R,3R)-5-(2-((1R,3aS,7aR,E)-1-((S)-1-((S)-2-(difluoromethyl)morpholino)propan-2-yl)-7a-methyloctahydro-4H-inden-4-ylidene)ethylidene)-2-methylenecyclohexane-1,3-diol], the activation at 1 µM in series [2] was not below 20%. The 50% effective concentration (EC50) at human VDR lay in the range of 0.001 to 0.01 µM.

As to `C=C1[C@H](O)CC(=C/C=C2\CCC[C@]3(C)[C@@H]([C@H](C)CN4CCO[C@@H](C(F)F)C4)CC[C@@H]23)C[C@H]1O` [Compound D008, (1R,3R)-5-(2-((1R,3aS,7aR,E)-1-((S)-1-((R)-2-(difluoromethyl)morpholino)propan-2-yl)-7a-methyloctahydro-4H-inden-4-ylidene)ethylidene)-2-methylenecyclohexane-1,3-diol], the activation at 1 µM in series [2] was not below 20%. Also, the EC50 on human VDR was in the range of 0.001 to 0.01 µM.

Regarding `C=C1[C@H](O)CC(=C/C=C2\CCC[C@]3(C)[C@@H]([C@H](C)CN4CCOC5(CCCC5)C4)CC[C@@H]23)C[C@H]1O` [Compound D012, (1R,3R)-5-(2-((1R,3aS,7aR,E)-1-((S)-1-(6-oxa-9-azaspiro[4.5]decan-9-yl)propan-2-yl)-7a-methyloctahydro-4H-inden-4-ylidene)ethylidene)-2-methylenecyclohexane-1,3-diol], the activation at 1 µM in series [2] is not below 20%. The compound also gave an EC50 at human VDR of 0.001 to 0.01 µM.

`C=C1[C@H](O)CC(=C/C=C2\CCC[C@]3(C)[C@@H]([C@H](C)CN4C[C@@H](C)OC[C@H]4C)CC[C@@H]23)C[C@H]1O` [Compound D017, (1R,3R)-5-(2-((1R,3aS,7aR,E)-1-((S)-1-((2R,5R)-2,5-dimethylmorpholino)propan-2-yl)-7a-methyloctahydro-4H-inden-4-ylidene)ethylidene)-2-methylenecyclohexane-1,3-diol]: the activation at 1 µM in series [2] was not below 20%. At human VDR, this compound registered an EC50 of 0.01 to 0.1 µM.

Regarding `C=C1[C@H](O)CC(=C/C=C2\CCC[C@]3(C)[C@@H]([C@H](C)CCN4CCO[C@@H](C)C4)CC[C@@H]23)C[C@H]1O` [Compound D025, (1R,3R)-5-(2-((1R,3aS,7aR,E)-7a-methyl-1-((R)-4-((S)-2-methylmorpholino)butan-2-yl)octahydro-4H-inden-4-ylidene)ethylidene)-2-methylenecyclohexane-1,3-diol], in series [2], the activation at 1 µM is not below 20%. In addition, on human VDR, the EC50 was 0.01 to 0.1 µM.

Turning to `C=C1[C@H](O)CC(=C/C=C2\CCC[C@]3(C)[C@@H]([C@H](C)CCN4CCOC(C)(C)C4)CC[C@@H]23)C[C@H]1O` [Compound D029, (1R,3R)-5-(2-((1R,3aS,7aR,E)-1-((R)-4-(2,2-dimethylmorpholino)butan-2-yl)-7a-methyloctahydro-4H-inden-4-ylidene)ethylidene)-2-methylenecyclohexane-1,3-diol], the activation at 1 µM in series [2] was not below 20%. The EC50 on human VDR lay within 0.001 to 0.01 µM.

Turning to `C[C@H](CCN1CCOC2(CC2)C1)[C@H]1CC[C@H]2/C(=C/C=C3C[C@@H](O)C[C@H](O)C3)CCC[C@]12C` [Compound D030, (1R,3R)-5-(2-((1R,3aS,7aR,E)-1-((R)-4-(4-oxa-7-azaspiro[2.5]octan-7-yl)butan-2-yl)-7a-methyloctahydro-4H-inden-4-ylidene)ethylidene)cyclohexane-1,3-diol], in series [2], the activation at 1 µM was not below 20%. On human VDR, this compound displayed an EC50 of 0.001 to 0.01 µM.

For `C=C1[C@H](O)CC(=C/C=C2\CCC[C@]3(C)[C@@H]([C@H](C)CCN4CCOC[C@H]4C)CC[C@@H]23)C[C@H]1O` [Compound D031, (1R,3R)-5-(2-((1R,3aS,7aR,E)-7a-methyl-1-((R)-4-((R)-3-methylmorpholino)butan-2-yl)octahydro-4H-inden-4-ylidene)ethylidene)-2-methylenecyclohexane-1,3-diol], the activation at 1 µM in series [2] was not below 20%. Further, the EC50 at human VDR was in the range of 0.001 to 0.01 µM.

With `C=C1[C@H](O)CC(=C/C=C2\CCC[C@]3(C)[C@@H]([C@H](C)CCN4CCOC[C@@H]4C)CC[C@@H]23)C[C@H]1O` [Compound D032, (1R,3R)-5-(2-((1R,3aS,7aR,E)-7a-methyl-1-((R)-4-((S)-3-methylmorpholino)butan-2-yl)octahydro-4H-inden-4-ylidene)ethylidene)-2-methylenecyclohexane-1,3-diol], in series [2], the activation at 1 µM is not below 20%. This compound also registered an EC50 at human VDR of 0.01 to 0.1 µM.

As for `C[C@H](CCN1CCO[C@@H](C)C1)[C@H]1CC[C@H]2/C(=C/C=C3C[C@@H](O)C[C@H](O)C3)CCC[C@]12C` [Compound D041, (1R,3R)-5-(2-((1R,3aS,7aR,E)-7a-methyl-1-((R)-4-((S)-2-methylmorpholino)butan-2-yl)octahydro-4H-inden-4-ylidene)ethylidene)cyclohexane-1,3-diol], in series [2], the activation at 1 µM was not below 20%. Also, the EC50 at human VDR was 0.1 to 1 µM.
